In US6117661A, “Mutant mono-oxygenase cytochrome P450cam” (BG plc, priority 1995, dated 2000):

Columns and labels:
[1] = molecular target: T1, P450cam WT (Pseudomonas putida, UniProt P00183); experiment: Product distribution following oxidation of substrates (GC); assay type: biochemical, P. putida; conditions: substrate cyclohexylbenzene; label = product
T1 construct: reconstituted with putidaredoxin and putidaredoxin reductase
Protocol: (§1) A buffered solution (50 mM Tris.HCI, pH 7.4), typically 3 ml in volume, containing 10 uM putidaredoxin, 2 uM putidaredoxin reductase, 1 uM cytochrome P-450cam mono-oxygenase (wild-type or mutant), 200 mM KCI, 50 ug/ml bovine liver catalase (Sigma), and 1 mM target organic compound such as cyclohexylbenzene (added as a 0.1 M stock in ethanol) was preincubated at 30° C. for 5 minutes. The enzymatic reaction was initiated by adding NADH to a total concentration of 2 mM. Further four aliquots of NADH (to increase the NADH concentration by 1 mM each time) were added in intervals of 10 minutes, and 30 minutes into the incubation one aliquot of substrate (to increase the concentration by 1 mM) was also added. The reaction was quenched after 60 minutes by adding 0.5 ml chloroform and vortexing the mixture. The phases were separated by centrifugation (4000 g) at 4° C. The chloroform layer was analyzed by gas chromatography.
(§2) For many substrate compounds such as cyclohexylbenzene for which not all the P-450cam-mediated oxidation products are commercially available, the chloroform extracts are evaporated to dryness under a stream of nitrogen. The residues were extracted with hexane and the oxidation products separated by high performance liquid chromatography, eluting with a hexane/isopropanol gradient. The purified products were then identified by mass spectroscopy and particularly nuclear magnetic resonance spectroscopy.
(§3) The NADH concentration can be monitored at 340 nm and, in all cases, more substrates and NADH are added during the incubation.

[2] = molecular target: T2, P450cam active site mutant Y96V (also C334A) (Pseudomonas putida, UniProt P00183, C335A/Y97V); assay type: biochemical, P. putida; conditions: substrate cyclohexylbenzene; label = product
T2 construct: reconstituted with putidaredoxin and putidaredoxin reductase
T2 sequence (P00183 2-415 Y97V/C335A): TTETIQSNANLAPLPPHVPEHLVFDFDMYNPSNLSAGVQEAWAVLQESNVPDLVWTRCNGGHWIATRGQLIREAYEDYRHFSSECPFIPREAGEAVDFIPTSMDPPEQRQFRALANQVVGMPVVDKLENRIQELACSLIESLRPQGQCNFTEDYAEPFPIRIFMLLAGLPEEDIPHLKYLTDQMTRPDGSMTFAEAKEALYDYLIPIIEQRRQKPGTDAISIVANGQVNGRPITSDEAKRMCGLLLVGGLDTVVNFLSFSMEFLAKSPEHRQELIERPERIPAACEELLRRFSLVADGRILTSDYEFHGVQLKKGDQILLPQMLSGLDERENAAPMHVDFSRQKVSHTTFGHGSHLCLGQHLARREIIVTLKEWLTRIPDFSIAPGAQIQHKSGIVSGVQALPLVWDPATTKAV
T2 sequence (P00259 whole entry, further chain): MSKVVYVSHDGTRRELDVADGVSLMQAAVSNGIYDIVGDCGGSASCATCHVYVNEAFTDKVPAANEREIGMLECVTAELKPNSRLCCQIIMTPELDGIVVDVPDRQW
T2 sequence (P16640 whole entry, further chain): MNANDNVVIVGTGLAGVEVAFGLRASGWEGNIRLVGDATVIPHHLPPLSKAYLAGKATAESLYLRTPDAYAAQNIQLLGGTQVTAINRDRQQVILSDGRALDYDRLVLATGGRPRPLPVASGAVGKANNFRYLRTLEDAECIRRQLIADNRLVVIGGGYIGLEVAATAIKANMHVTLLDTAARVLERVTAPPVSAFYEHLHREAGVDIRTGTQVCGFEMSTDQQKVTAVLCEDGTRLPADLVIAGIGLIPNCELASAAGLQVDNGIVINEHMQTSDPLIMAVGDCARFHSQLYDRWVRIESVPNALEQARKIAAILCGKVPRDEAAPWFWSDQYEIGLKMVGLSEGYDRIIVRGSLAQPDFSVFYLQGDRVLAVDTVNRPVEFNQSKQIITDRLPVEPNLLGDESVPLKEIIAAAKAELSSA
Protocol: as §1, §2, §3

[3] = molecular target: T3, P450cam active site mutant Y96L (also C334A) (Pseudomonas putida, UniProt P00183, C335A/Y97L); assay type: biochemical, P. putida; conditions: substrate cyclohexylbenzene; label = product
T3 construct: reconstituted with putidaredoxin and putidaredoxin reductase
T3 sequence (P00183 2-415 Y97L/C335A): as the sequence (P00183 2-415 Y97V/C335A) above, with V96L counted along it
T3 sequence (P16640 whole entry, further chain): as the sequence (P16640 whole entry, further chain) above
T3 sequence (P00259 whole entry, further chain): as the sequence (P00259 whole entry, further chain) above
Protocol: as §1, §2, §3

[4] = molecular target: T4, P450cam active site mutant Y96F (also C334A) (Pseudomonas putida, UniProt P00183, C335A/Y97F); assay type: biochemical, P. putida; conditions: substrate cyclohexylbenzene; label = product
T4 construct: reconstituted with putidaredoxin and putidaredoxin reductase
T4 sequence (P16640 whole entry): as the sequence (P16640 whole entry, further chain) above
T4 sequence (P00183 2-415 Y97F/C335A): as the sequence (P00183 2-415 Y97V/C335A) above, with V96F counted along it
T4 sequence (P00259 whole entry, further chain): as the sequence (P00259 whole entry, further chain) above
Protocol: as §1, §2, §3

[5] = molecular target: T5, P450cam active site mutant Y96A (also C334A) (Pseudomonas putida, UniProt P00183, C335A/Y97A); assay type: biochemical, P. putida; conditions: substrate cyclohexylbenzene; label = product
T5 construct: reconstituted with putidaredoxin and putidaredoxin reductase
T5 sequence (P00183 2-415 Y97A/C335A): as the sequence (P00183 2-415 Y97V/C335A) above, with V96A counted along it
T5 sequence (P00259 whole entry, further chain): as the sequence (P00259 whole entry, further chain) above
T5 sequence (P16640 whole entry, further chain): as the sequence (P16640 whole entry, further chain) above
Protocol: as §1, §2, §3

[6] = molecular target: T6, Wild type P450cam (Pseudomonas putida, UniProt P00183); experiment: Turnover rate measured as NADH consumption rate; assay type: biochemical, P. putida; conditions: small alkanes; background about 0.07
T6 sequence (P00183 whole entry): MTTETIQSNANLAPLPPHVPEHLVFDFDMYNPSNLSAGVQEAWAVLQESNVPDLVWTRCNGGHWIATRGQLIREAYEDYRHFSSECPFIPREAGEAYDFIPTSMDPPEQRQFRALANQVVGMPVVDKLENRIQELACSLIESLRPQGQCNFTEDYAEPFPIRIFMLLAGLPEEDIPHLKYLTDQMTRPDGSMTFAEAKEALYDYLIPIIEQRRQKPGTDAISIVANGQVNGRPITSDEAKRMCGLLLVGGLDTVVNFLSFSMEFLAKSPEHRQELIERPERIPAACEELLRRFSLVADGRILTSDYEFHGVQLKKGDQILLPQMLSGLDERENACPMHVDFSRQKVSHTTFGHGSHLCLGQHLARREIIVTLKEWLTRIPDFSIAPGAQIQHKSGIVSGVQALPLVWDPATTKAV
T6 sequence (P00259 whole entry, further chain): as the sequence (P00259 whole entry, further chain) above
T6 sequence (P16640 whole entry, further chain): as the sequence (P16640 whole entry, further chain) above
Protocol: as §1, §3
(§4) Turnover rate measured as NADH consumption rate
(§5) (nmole NADH/nmole P450cam/s).

[7] = molecular target: T7, P450cam Y96A (also contains the C334A mutation) (Pseudomonas putida, UniProt P00183, C335A/Y97A); assay type: biochemical, P. putida; conditions: small alkanes
T7 construct: reconstituted with putidaredoxin and putidaredoxin reductase
T7 sequence (P00183 2-415 Y97A/C335A): as the sequence (P00183 2-415 Y97V/C335A) above, with V96A counted along it
T7 sequence (P16640 whole entry, further chain): as the sequence (P16640 whole entry, further chain) above
T7 sequence (P00259 whole entry, further chain): as the sequence (P00259 whole entry, further chain) above
Protocol: as §1, §3, §4, §5

[8] = molecular target: P450cam Mutant Y96A (Pseudomonas putida, UniProt P00183, C335A/Y97A); assay type: binding, P. putida
Chain of P450cam Mutant Y96A (P00183 2-415 Y97A/C335A): as the sequence (P00183 2-415 Y97V/C335A) above, with V96A counted along it
Chain of P450cam Mutant Y96A (P16640 whole entry, further chain): as the sequence (P16640 whole entry, further chain) above
Chain of P450cam Mutant Y96A (P00259 whole entry, further chain): as the sequence (P00259 whole entry, further chain) above

[9] = molecular target: T6, Wild type P450cam; assay type: binding, P. putida
[10] = Protein dimerisation by anion exchange FPLC and gel filtration; assay type: physicochemical; conditions: Resource Q FPLC and Superose 12 gel filtration; C334A even at high concentrations (0.1 mM range)
Description: We concluded that wild-type P-450cam underwent dimerisation by intermolecular S--S disulphide bond formation between the surface cysteine 334 on two protein molecules.

[11] = Protein aggregation upon standing/storage; assay type: physicochemical; conditions: storage at 4° C., and even in 50% glycerol solutions at -20° C.
Description: The C334A mutation has the obvious benefit of removing unwanted protein dimerisation, thus ensuring the presence of a single species in solution at all times. In addition, we noted a completely unexpected benefit of this mutation. […] Aggregation will also occur during turnover, especially at the higher P-450cam concentrations required in any economically viable industrial application in, for example, synthesis of organic molecules. […] Thus, the C334A mutation has beneficial effects in protein handling, storage, and increased catalyst lifetime.

[12] = -- = no shift, nd = not determined

T1 sequence (P00259 whole entry): as the sequence (P00259 whole entry, further chain) above
T1 sequence (P16640 whole entry, further chain): as the sequence (P16640 whole entry, further chain) above
T1 sequence (P00183 whole entry): as the sequence (P00183 whole entry) above

Molecule: OC1CCCC(c2ccccc2)C1 (single isomer, unassigned) [3-ol]
- Products (%) WT [1]: 43%
- Products (%) Y96V [2]: 28%
- Products (%) Y96L [3]: 38%
- Products(%) Y96F [4]: 54%
- Products(%) Y96A [5]: 20%

Molecule: CCC(C)C [2-methyl butane]
- Turnover rate (NADH consumption rate) Wild type [6]: background
- Turnover rate (NADH consumption rate) Y96A [7]: 4.6 nmole NADH/nmole P450cam/s

Molecule: CCC(CC)CC [3-ethyl pentane]
- Turnover rate (NADH consumption rate) Wild type [6]: background
- Turnover rate (NADH consumption rate) Y96A [7]: 16.2 nmole NADH/nmole P450cam/s

Molecule: OC1CCCC(c2ccccc2)C1 (centres unmarked) [L or D 3-ol]
- Products (%) WT [1]: 20%
- Products (%) Y96V [2]: 39%
- Products (%) Y96L [3]: 23%
- Products(%) Y96F [4]: 27%
- Products(%) Y96A [5]: 20%

Molecule: C1CCCCCC1 [cycloheptane]
- Turnover rate (NADH consumption rate) Wild type [6]: 4.4 nmole NADH/nmole P450cam/s
- Turnover rate (NADH consumption rate) Y96A [7]: 42.5 nmole NADH/nmole P450cam/s

Molecule: O[C@H]1CC[C@H](c2ccccc2)CC1 [Trans-4-ol]
- Products (%) WT [1]: 25%
- Products (%) Y96V [2]: 10%
- Products (%) Y96L [3]: 23%
- Products(%) Y96F [4]: 6%
- Products(%) Y96A [5]: 15%

Molecule: CCCCCCC [n-Heptane]
- Turnover rate (NADH consumption rate) Wild type [6]: 2.7 nmole NADH/nmole P450cam/s
- Mutant Y96A Vs DTT [8]: 40
- Mutant Y96A ΔSpin high/low [8, 12]: 60
- Wild type Vs DTT [9]: 5
- Wild type ΔSpin high/low [9, 12]: 5
- Turnover rate (NADH consumption rate) Y96A [7]: 4.4 nmole NADH/nmole P450cam/s

B1: wild-type P-450cam: mono-oxygenase cytochrome P-450cam from P. putida (protein, UniProt P00183 2-415, looked up)
Camphor 5-monooxygenase: TTETIQSNANLAPLPPHVPEHLVFDFDMYNPSNLSAGVQEAWAVLQESNVPDLVWTRCNGGHWIATRGQLIREAYEDYRHFSSECPFIPREAGEAYDFIPTSMDPPEQRQFRALANQVVGMPVVDKLENRIQELACSLIESLRPQGQCNFTEDYAEPFPIRIFMLLAGLPEEDIPHLKYLTDQMTRPDGSMTFAEAKEALYDYLIPIIEQRRQKPGTDAISIVANGQVNGRPITSDEAKRMCGLLLVGGLDTVVNFLSFSMEFLAKSPEHRQELIERPERIPAACEELLRRFSLVADGRILTSDYEFHGVQLKKGDQILLPQMLSGLDERENACPMHVDFSRQKVSHTTFGHGSHLCLGQHLARREIIVTLKEWLTRIPDFSIAPGAQIQHKSGIVSGVQALPLVWDPATTKAV
- presence of protein dimer [10]: dimer was detected
- dimerisation and aggregation upon storage [11]: dimerisation as well as aggregation

B2: C58A: P-450cam surface mutant, cysteine 58 substituted to alanine (protein, UniProt P00183 2-415, looked up, variant C58A)
Camphor 5-monooxygenase: TTETIQSNANLAPLPPHVPEHLVFDFDMYNPSNLSAGVQEAWAVLQESNVPDLVWTRANGGHWIATRGQLIREAYEDYRHFSSECPFIPREAGEAYDFIPTSMDPPEQRQFRALANQVVGMPVVDKLENRIQELACSLIESLRPQGQCNFTEDYAEPFPIRIFMLLAGLPEEDIPHLKYLTDQMTRPDGSMTFAEAKEALYDYLIPIIEQRRQKPGTDAISIVANGQVNGRPITSDEAKRMCGLLLVGGLDTVVNFLSFSMEFLAKSPEHRQELIERPERIPAACEELLRRFSLVADGRILTSDYEFHGVQLKKGDQILLPQMLSGLDERENACPMHVDFSRQKVSHTTFGHGSHLCLGQHLARREIIVTLKEWLTRIPDFSIAPGAQIQHKSGIVSGVQALPLVWDPATTKAV
- presence of protein dimer [10]: dimer was detected
- dimerisation and aggregation upon storage [11]: dimerisation as well as aggregation

B3: C136A: P-450cam surface mutant, cysteine 136 substituted to alanine (protein, UniProt P00183 2-415, looked up, variant C136A)
Camphor 5-monooxygenase: TTETIQSNANLAPLPPHVPEHLVFDFDMYNPSNLSAGVQEAWAVLQESNVPDLVWTRCNGGHWIATRGQLIREAYEDYRHFSSECPFIPREAGEAYDFIPTSMDPPEQRQFRALANQVVGMPVVDKLENRIQELAASLIESLRPQGQCNFTEDYAEPFPIRIFMLLAGLPEEDIPHLKYLTDQMTRPDGSMTFAEAKEALYDYLIPIIEQRRQKPGTDAISIVANGQVNGRPITSDEAKRMCGLLLVGGLDTVVNFLSFSMEFLAKSPEHRQELIERPERIPAACEELLRRFSLVADGRILTSDYEFHGVQLKKGDQILLPQMLSGLDERENACPMHVDFSRQKVSHTTFGHGSHLCLGQHLARREIIVTLKEWLTRIPDFSIAPGAQIQHKSGIVSGVQALPLVWDPATTKAV
- presence of protein dimer [10]: dimer was detected
- dimerisation and aggregation upon storage [11]: dimerisation as well as aggregation

B4: C85A: P-450cam surface mutant, cysteine 85 substituted to alanine (protein, UniProt P00183 2-415, looked up, variant C85A)
Camphor 5-monooxygenase: TTETIQSNANLAPLPPHVPEHLVFDFDMYNPSNLSAGVQEAWAVLQESNVPDLVWTRCNGGHWIATRGQLIREAYEDYRHFSSEAPFIPREAGEAYDFIPTSMDPPEQRQFRALANQVVGMPVVDKLENRIQELACSLIESLRPQGQCNFTEDYAEPFPIRIFMLLAGLPEEDIPHLKYLTDQMTRPDGSMTFAEAKEALYDYLIPIIEQRRQKPGTDAISIVANGQVNGRPITSDEAKRMCGLLLVGGLDTVVNFLSFSMEFLAKSPEHRQELIERPERIPAACEELLRRFSLVADGRILTSDYEFHGVQLKKGDQILLPQMLSGLDERENACPMHVDFSRQKVSHTTFGHGSHLCLGQHLARREIIVTLKEWLTRIPDFSIAPGAQIQHKSGIVSGVQALPLVWDPATTKAV
- presence of protein dimer [10]: dimer was detected
- dimerisation and aggregation upon storage [11]: dimerisation as well as aggregation
